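Where inhibition never reached the appropriate level, the endpoint shown equals the highest concentration tested. Otherwise, values were interpolated linearly from a five-concentration, 48-hour dose response in 96-well plates. Abbreviation: GI50, concentration required for 50% inhibition of growth. Definition used: TGI = concentration required for complete inhibition of growth.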
Tests used:
Test in all cases: NCI anticancer screen, dose series, 48 h
[1] = system: UACC-257 melanoma
[2] = system: HT29 colon
[3] = system: EKVX NSCLC
[4] = system: SN12C renal
[5] = system: RXF 393 renal
[6] = system: SNB-19 CNS
[7] = system: MCF7 breast
[8] = system: NCI-H522 lung
[9] = system: NCI-H460 lung
[10] = system: CCRF-CEM leukemia
[11] = system: HCT-116 colon
[12] = system: MOLT-4 leukemia
[13] = system: HCC-2998 colon
[14] = system: U251 CNS
[15] = system: OVCAR-5 ovarian
[16] = system: MALME-3M melanoma
[17] = system: COLO 205 colon
[18] = system: A498 renal
[19] = system: CAKI-1 renal
[20] = system: M14 melanoma
[21] = system: DU-145 prostate
[22] = system: 786-0 renal
[23] = system: ACHN renal
[24] = system: K-562 leukemia
[25] = system: HOP-62 NSCLC
[26] = system: HCT-15 colon
[27] = system: HOP-92 NSCLC
[28] = system: TK-10 renal
[29] = system: MDA-MB-435
[30] = system: UACC-62 melanoma
[31] = system: SF-268 CNS
[32] = system: OVCAR-4 ovarian
[33] = system: SW-620 colon
[34] = system: SF-295 CNS
[35] = system: SK-OV-3 ovarian
[36] = system: NCI/ADR-RES ovarian
[37] = system: BT-549 breast
[38] = system: SF-539 CNS
[39] = system: NCI-H23 lung
[40] = system: SNB-75 CNS
[41] = system: KM12 colon
[42] = system: UO-31 renal
[43] = system: PC-3 prostate
[44] = system: LOX IMVI melanoma
[45] = system: HS 578T breast
[46] = system: SK-MEL-5 melanoma
[47] = system: NCI-H226 lung
[48] = system: RPMI-8226 leukemia
[49] = system: IGROV1 ovarian
[50] = system: A549 NSCLC

SMILES: N#Cc1c(NC(=O)c2ccc(F)c(Cl)c2)sc2c1CCC(=O)C2
- GI50 [1]: 1.52 µM
- TGI [1]: 4.26 µM
- GI50 [2]: 0.347 µM
- TGI [2]: 1.31 µM
- GI50 [3]: 1.06 µM
- TGI [3]: 4.8 µM
- GI50 [4]: 0.351 µM
- TGI [4]: 1.56 µM
- GI50 [5]: 0.353 µM
- TGI [5]: 1.3 µM
- GI50 [6]: 0.672 µM
- TGI [6]: 10.4 µM
- GI50 [7]: 0.337 µM
- TGI [7]: 15 µM
- GI50 [8]: 0.2 µM
- TGI [8]: 0.671 µM
- GI50 [9]: 1.94 µM
- TGI [9]: > 33.3 µM
- GI50 [10]: 0.216 µM
- TGI [10]: > 24.4 µM
- GI50 [11]: 0.233 µM
- TGI [11]: 1.11 µM
- GI50 [12]: 0.332 µM
- TGI [12]: > 26 µM
- GI50 [13]: 1.32 µM
- TGI [13]: 3.33 µM
- GI50 [14]: 0.353 µM
- TGI [14]: 1.36 µM
- GI50 [15]: 0.728 µM
- TGI [15]: 3.02 µM
- GI50 [16]: 0.485 µM
- TGI [16]: 1.69 µM
- GI50 [17]: 0.423 µM
- TGI [17]: 1.38 µM
- GI50 [18]: 2.4 µM
- TGI [18]: 6.44 µM
- GI50 [19]: 0.302 µM
- TGI [19]: 1.13 µM
- GI50 [20]: 0.365 µM
- TGI [20]: 1.75 µM
- GI50 [21]: 4.04 µM
- TGI [21]: > 100 µM
- GI50 [22]: 0.389 µM
- TGI [22]: 5.78 µM
- GI50 [23]: 0.349 µM
- TGI [23]: 1.08 µM
- GI50 [24]: 0.301 µM
- TGI [24]: > 100 µM
- GI50 [25]: 2.51 µM
- TGI [25]: > 28.3 µM
- GI50 [26]: 0.368 µM
- TGI [26]: 2.06 µM
- GI50 [27]: 0.231 µM
- TGI [27]: 0.724 µM
- GI50 [28]: 0.44 µM
- TGI [28]: 2.02 µM
- GI50 [29]: 0.436 µM
- TGI [29]: 2.4 µM
- GI50 [30]: 0.426 µM
- TGI [30]: 1.94 µM
- GI50 [31]: 0.89 µM
- TGI [31]: 6.36 µM
- GI50 [32]: 0.578 µM
- TGI [32]: 2 µM
- GI50 [33]: 0.406 µM
- TGI [33]: 1.87 µM
- GI50 [34]: 1.12 µM
- TGI [34]: 3.89 µM
- GI50 [35]: 1.47 µM
- TGI [35]: 3.03 µM
- GI50 [36]: 0.449 µM
- TGI [36]: > 100 µM
- GI50 [37]: 0.223 µM
- TGI [37]: 0.696 µM
- GI50 [38]: 0.312 µM
- TGI [38]: 1.15 µM
- GI50 [39]: 0.371 µM
- TGI [39]: 2.08 µM
- GI50 [40]: 1.42 µM
- TGI [40]: 4.21 µM
- GI50 [41]: 0.419 µM
- TGI [41]: 1.93 µM
- GI50 [42]: 0.298 µM
- TGI [42]: 1.17 µM
- GI50 [43]: 0.237 µM
- TGI [43]: 1.35 µM
- GI50 [44]: 0.404 µM
- TGI [44]: 4.44 µM
- GI50 [45]: 0.523 µM
- TGI [45]: 3.76 µM
- GI50 [46]: 1.23 µM
- TGI [46]: 2.59 µM
- GI50 [47]: 2.04 µM
- TGI [47]: 6.25 µM
- GI50 [48]: 0.155 µM
- TGI [48]: 0.684 µM
- GI50 [49]: 0.592 µM
- TGI [49]: 2.38 µM
- GI50 [50]: 2.64 µM
- TGI [50]: > 29.2 µM

— PubChem BioAssay (NCI)
